Results from US12280121B2, “Immunoconjugates and methods” (Immunome, Inc., priority 2021, dated 2025).
pIC50: −log10 of the molar value. Where a name gives a salt, the structure may show the parent alone. Read-outs that look alike come from different tables or passages of the source.

Assays:
Jeko-1 = assay: CTG assay (CellTiter-Glo cell viability), Jeko-1, payload compounds; type: cell-based; conditions: Homo sapiens; for pIC50: JeKo-1, 72 h, CellTiter-Glo, read-out: JeKo-1 IC50
From the text: (§1) The CTG assay is a method of determining the number of viable cells in culture based on quantitation of the ATP present, an indicator of metabolically active cells. The cell assay requires the addition of a single reagent, Cell Titer Glo, in which cells are lysed and generation of a luminescent signal is produced. The luminescent signal is proportional to the amount of ATP present. The amount of ATP is directly proportional to the number of cells present in culture. For our assay, cells were ensured to be in log-phase for either Jeko-1 or MDA-MB-468. Cells were transferred to 96 wells and treated with compounds in three-fold serial dilution starting from 1 μM to 0.0000508 μM (10 points dilution), for 72 h. Cell viability was analyzed with CellTiter-Glo® Luminescent Cell Viability Assay (Promega) following manufactures' instruction. Percentage of viable cells in each compound concentration was determined by normalizing with the luminescence of vehicle control and plotted into percentage of viability versus dose response curve by nonlinear fit in GraphPad Prism software.

MDA-MB-468 = assay: CTG assay (CellTiter-Glo cell viability), MDA-MB-468, payload compounds; type: cell-based; conditions: Homo sapiens; for pIC50: MDA-MB-468, 72 h, CellTiter-Glo, read-out: MDA-MB-468 IC50
From the text: as §1

[1] = Human hepatocyte clearance (HHEP CL); type: in vitro ADME; parameters: CLint scaled / half-life: dose or concentration left out as unconfirmed; conditions: both sexes
Description: Suspensions of human hepatocytes (from 10 mixed gender human donors, final concentration 0.5×10^6 cell/mL) in Williams' E medium were incubated for 90 min with a test compound (0.90% acetonitrile and 0.10% DMSO, final concentration […]) and positive controls (7-Ethoxycoumarin, 7-Hydroxycoumarin, 0.90% acetonitrile and 0.10% DMSO, final concentration […]), with constant shaking at about 600 rpm at 37° C. in an incubator at 5% CO2 and 95% humidity. The total volume of incubation was 200 μl. A sample ([…]) was taken out at TO, 15, 30, 60 and 90 min, which was added intermediately to the ice-cold stop solution (acetonitrile with 200 ng/mL of tobutamide and labetalol as internal standard) (125 μl), and vortexed at 500 rpm for 10 min, centrifuged at 3220×g for 20 min at 4° C. Analytical plates are sealed and stored at 4° C. until LCMS analysis. Viability of hepatocytes at pre-incubation was determined to be 84.5%.
(§2) Human liver microsome clearance assay assess metabolism by the cytochrome P450 system (phase I enzymes). These enzymes oxidize substrates by incorporating oxygen atoms into hydrocarbons, thus causing the introduction of hydroxyl groups, or N- O- and S-dealkylation of substrates and forming more polar products easier to be cleared. Human hepatocyte clearance assay measures more broadly the overall cellular metabolism of the test compound (phase I and phase II enzyme pathways). Phase II enzymes catalyze the conjugation reaction of xenobiotic metabolites and charged species, such as glutathione, sulfate, glycine, or glucuronic acid to form even more polar compounds for easier clearance.

[2] = Human liver microsome clearance (HLM CL); type: in vitro ADME
Description: Working solution was prepared by adding 5 μL of compound and control stock solution (10 mM in dimethyl sulfoxide, DMSO) to 495 μL of acetonitrile (ACN) (intermediate solution concentration: 100 μM, 99% CAN and 1% DMSO. The appropriate concentrations of microsome working solutions were prepared in 100 mM potassium phosphate buffer. After reaction plates containing mixtures of compound and microsomes were pre-incubated at 37° C. for 10 min, […] of 2 mM of NADPH and 2 mM of MgCl2 solution was added to start the reaction. The final concentrations of incubation medium were as follows: microsome—0.5 mg protein/mL, test compound/control […], NADPH—1 mM, MgCl2 —1 mM, acetonitrile 0.99%, DMSO 0.01%. Incubations were performed at 37° C. for 60 min. Samples were taken out at TO, T5, T15, T30, T45 and T60, which was added intermediately to the ice-cold stop solution (acetonitrile with 200 ng/mL of tobutamide and labetalol as internal standard) (125 μl), shaken for 10 min, centrifuged at 4000 rpm for 20 min at 4° C. Analytical plates were analyzed by LCMS.
as §2

[3] = PAMPA (Parallel Artificial Membrane Permeability Assay); type: physicochemical
From the text: PAMPA is a method which determines the permeability of substances from a donor compartment, through a lipid-infused artificial membrane into an acceptor compartment. See Ottaviani, G.; Martel, S.; Carrupt, P-A. “Parallel Artificial Membrane Permeability Assay: A New Membrane for the Fast Prediction of Passive Human Skin Permeability”, Journal of Medicinal Chemistry, 2006, 49 (13), 3948-3954). A multi-well microtitre plate is used for the donor and a membrane/acceptor compartment is placed on top; the whole assembly is commonly referred to as a “sandwich”. At the beginning of the test, the drug is added to the donor compartment, and the acceptor compartment is drug-free. After an incubation period which may include stirring, the sandwich is separated, and the amount of drug is measured in each compartment. Mass balance allows calculation of drug that remains in the membrane.
The PAMPA was performed by Pion Inc using the GIT-0 lipid and 5 μM donor solution in pH 5.0 and pH 7.4 PRISMA buffer (containing 0.05% DMSO). The higher PAMPA data has been associated with better bystander killing. (Ogitani Y.; Hagihara K.; Oitate, M.; Naito, H.; Agatsuma T. “Bystander killing effect of DS-8201a, a novel anti-human epidermal growth factor receptor 2 antibody-drug conjugate, in tumors with human epidermal growth factor receptor 2 heterogeneity” Cancer Science, 2016, 107 (7), 1039-1046).

[4] = human liver microsomes 0.5 mg protein/mL, NADPH, 60 min, read-out: HLM Cl (human liver microsome clearance)

SMILES	pIC50 (Jeko-1)	pIC50 (MDA-MB-468)	CLint scaled ([1]; human, hepatocytes) [mL/min/kg]	half-life ([1]; human, hepatocytes) [min]	CLint scaled ([2]; human, microsomes) [mL/min/kg]	half-life ([2]; human, microsomes) [min]	Papp at 5 μM ([3]; pH 5) [×10⁻⁶ cm/s]	Papp at 5 μM ([3]; pH 7.4) [×10⁻⁶ cm/s]	PAMPA Pe (10^−6 cm/s) pH 5.0 ([3]; 5 μM, pH 5)	half-life ([1]; human hepatocytes, 90 min incubation, read-out: HHEP (T1/2)) [min]	CLint scaled ([1]; human hepatocytes, 90 min incubation, read-out: HHEP Cl (human hepatocytes intrinsic clearance)) [mL/min/kg]	half-life ([2]; human liver microsomes 0.5 mg protein/mL, NADPH, 60 min, read-out: HLM (T1/2)) [min]	CLint scaled [2, 4] [mL/min/kg]	Papp at 5 μM ([3]; pH 5.0 PRISMA buffer, GIT-0 lipid, 5 μM donor solution, read-out: PAMPA Pe pH 5.0) [×10⁻⁶ cm/s]	Papp at 5 μM ([3]; pH 7.4 PRISMA buffer, GIT-0 lipid, 5 μM donor solution, read-out: PAMPA Pe pH 7.4) [×10⁻⁶ cm/s]	IC50 (Jeko-1; JeKo-1, 72 h, read-out: JeKo-1 IC50 (nM)) [nM]	IC50 (MDA-MB-468; MDA-MB-468, 72 h, read-out: MDA-MB-468 IC50 (nM)) [nM]	CLint scaled ([1]; human hepatocytes in suspension, human hepatocytes, 90 min incubation, read-out: HHEP Cl (human hepatocytes intrinsic clearance)) [mL/min/kg]	Papp ([3]; pH 5) [×10⁻⁶ cm/s]	Papp ([3]; pH 7.4) [×10⁻⁶ cm/s]
CC[C@@]1(O)C(=O)OCc2c1cc1n(c2=O)Cc2c-1nc1cc(F)c(C)c3c1c2[C@H](N)CCC3 (single isomer, unassigned) [Compound 7-60, methanesulfonate]	8.68	7.83	64.5	59.7	40.8	30.6														
CC[C@@]1(O)C(=O)OCc2c1cc1n(c2=O)Cc2c-1nc1cc(F)c(C)c3c1c2[C@](C)(OCCO)CC3 (single isomer, unassigned) [Compound 14-92]	8.92	7.85	51.3	75.1	19.2	65	69.1	4.5												
CC[C@@]1(O)C(=O)OCc2c1cc1n(c2=O)Cc2c-1nc1cc(F)c(C)c3c1c2[C@](C)(O)CC3 (single isomer, unassigned) [Compound 13-85]	8.59	7.44	75.7	51	58.3	21	69.7	6												
CC[C@@]1(O)C(=O)OCc2c1cc1n(c2=O)Cc2c-1nc1cc(F)c(C)c3c1c2[C@H](OCCO)CC3 (single isomer, unassigned) [Compound 5-47]	8.82	8.20	53.7	71.7	17.3	72.2		11.6	76/.1 10^−6 cm/s											
CC[C@@]1(O)C(=O)OCc2c1cc1n(c2=O)Cc2c-1nc1cc(F)c(C)c3c1c2[C@](C)(NC(=O)CO)CC3 [Compound 10-75, N-((1R,9S)-9-ethyl-5-fluoro-9-hydroxy-1,4-dimethyl-10,13-dioxo-1,2,3,9,10,12,13,15-octahydrobenzo[de]pyrano[3′,4′:6,7]indolizino[1,2-b]quino-lin-1-yl)-2-hydroxyacetamide]	7.24	6.33	40.8	94.4	27.2	45.9	46.8	3.9												
CC[C@@]1(O)C(=O)OCc2c1cc1n(c2=O)Cc2c-1nc1cc(F)c(C)c3c1c2[C@](C)(N)CC3 (single isomer, unassigned) [Compound 8-72, hydrochloride]	8.82	8.11	79.1	49	35.9	35	80.8	8.4												
CC[C@@]1(O)C(=O)OCc2c1cc1n(c2=O)Cc2c-1nc1cc(F)c(C)c3c1c2[C@@](C)(NCCO)CC3.Cl [Compound 16-95, (1S,9S)-9-ethyl-5-fluoro-9-hydroxy-1-((2-hydroxyethyl)amino)-1,4-dimethyl-2,3,12,15-tetrahydrobenzo[de]pyrano[3′,4′:6,7]indolizino[1,2-b]quinoline-10,13(1H,9H)-dione hydrochloride]	8.89	7.86								130	29.6	49.1	25.4	63.1	5.5					
CC[C@@]1(O)C(=O)OCc2c1cc1n(c2=O)Cc2c-1nc1cc(F)c(C)c3c1c2[C@@H](O)CC3 (single isomer, unassigned) [Compound 3-35]	9.34	8.33	50.4	76.5	20.2	61.8	66.1	11.1												
CC[C@@]1(O)C(=O)OCc2c1cc1n(c2=O)Cc2c-1nc1cc(F)c(C)c3c1c2[C@@H](N)CC3.CS(=O)(=O)O [Exatecan, (1S,9S)-1-amino-9-ethyl-5-fluoro-9-hydroxy-4-methyl-2,3,12,15-tetrahydro-benzo[de]pyrano [3′,4′:6,7]indolizino[1,2-b]quinoline-10,13(1H,9H)-dione methanesulfonate, reference compound]				65		106							11.7			0.59	6.2	59.3	37.2	5.7
CC[C@@]1(O)C(=O)OCc2c1cc1n(c2=O)Cc2c-1nc1cc(F)c(C)c3c1c2[C@@](C)(OCCO)CC3 (single isomer, unassigned) [Compound 14-91]	8.85	7.75	63.4	60.8	46.5	26.8	67.8	5.6												
CC[C@@]1(O)C(=O)OCc2c1cc1n(c2=O)Cc2c-1nc1cc(F)c(C)c3c1c2[C@H](O)CC3 (single isomer, unassigned) [Compound 3-34]	9.23	8.22	79.2	48.7	32.1	38.8	78.3	8.2												
CC[C@@]1(O)C(=O)OCc2c1cc1n(c2=O)Cc2c-1nc1cc(F)c(C)c3c1c2[C@@](C)(O)CC3 (single isomer, unassigned) [Compound 13-84]	9.21	8.23	112	34	58.9	21	64.4	7.6												
CC[C@@]1(O)C(=O)OCc2c1cc1n(c2=O)Cc2c-1nc1cc(F)c(C)c3c1c2[C@@H](N)CCC3 (single isomer, unassigned) [Compound 7-59, methanesulfonate]	8.54	7.83	69.4	55.5	33.7	37														
